Assay results published in patent US6737383B1, “Herbicidal oxadiazolidines” (priority 1999, dated 2004).

Legend:
morningglory = assay: Test B pre/postemergence morningglory; assay type: in vivo, Ipomoea hederacea
In short: (§1)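 Test chemicals in a non-phytotoxic solvent mixture with surfactant were sprayed preemergence onto planted seeds and postemergence onto plants 2 to 18 cm tall (1- to 4-leaf stage). After twelve to sixteen days in a greenhouse, injury was visually rated against untreated controls from 0 (no effect) to 10 (complete control).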

bedstraw = assay: Test B pre/postemergence bedstraw; assay type: in vivo, Galium aparine
In short: as §1

corn = assay: Test B pre/postemergence corn; assay type: in vivo, Zea mays
In short: as §1

cocklebur = assay: Test B pre/postemergence cocklebur; assay type: in vivo, Xanthium strumarium
In short: as §1

giant foxtail = assay: Test B pre/postemergence giant foxtail; assay type: in vivo, Setaria faberii
In short: as §1

rape = assay: Test B pre/postemergence rape; assay type: in vivo, Brassica napus
In short: as §1

sugar beet = assay: Test B pre/postemergence sugar beet; assay type: in vivo, Beta vulgaris
In short: as §1

velvetleaf = assay: Test B pre/postemergence velvetleaf; assay type: in vivo, Abutilon theophrasti
In short: as §1

smallflower flatsedge = assay: Test B flood test smallflower flatsedge; assay type: in vivo, Cyperus difformis
In short: (§2)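 Each value is a visual injury score relative to controls, with 10 meaning complete control and 0 no effect. Evaluation took place twelve to sixteen days after the 2-leaf-stage plants were treated and kept in the greenhouse.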

crabgrass = assay: Test B pre/postemergence crabgrass; assay type: in vivo, Digitaria sanguinalis
In short: as §1

rice = assay: Test B flood test rice; assay type: in vivo, Oryza sativa
In short: as §2

wild oat = assay: Test B pre/postemergence wild oat; assay type: in vivo, Avena fatua
In short: as §1

blackgrass = assay: Test B pre/postemergence blackgrass; assay type: in vivo, Alopecurus myosuroides
In short: as §1

surinam grass = assay: Test B pre/postemergence surinam grass; assay type: in vivo, Brachiaria decumbens
In short: as §1

bamyardgrass = assay: Test B flood test barnyardgrass; assay type: in vivo, Echinochloa crus-galli
In short: as §2

pigweed = assay: Test B pre/postemergence pigweed; assay type: in vivo, Amaranthus retroflexus
In short: as §1

[1] = Postemergence, Rate 125 g/ha, scale of 0 to 10 where 0 is no effect and 10 is complete control
[2] = Postemergence, Rate 1000 g/ha, scale 0 to 10 (0 no effect, 10 complete control)
[3] = Preemergence, Rate 62 g/ha, scale of 0 to 10 where 0 is no effect and 10 is complete control
[4] = Preemergence, Rate 125 g/ha, 0 is no effect, 10 is complete control
[5] = Preemergence, Rate 250 g/ha, scale 0 to 10, 0 is no effect, 10 is complete control
[6] = Preemergence, Rate 500 g/ha, scale 0 to 10 (0 no effect, 10 complete control)
[7] = Rate 62 g/ha, Postemergence, scale of 0 to 10 where 0 is no effect and 10 is complete control
[8] = Rate 250 g/ha, Postemergence, scale 0 to 10, 0 is no effect, 10 is complete control
[9] = Rate 500 g/ha, Postemergence, scale 0 to 10
[10] = Rate 1000 g/ha, Preemergence, scale 0 to 10 (0 no effect, 10 complete control)
[11] = Rate 2000 g/ha, Postemergence, scale 0 to 10
[12] = Rate 2000 g/ha, Preemergence, scale 0 to 10
[13] = Postemergence (flood test species), Rate 125 g/ha, scale of 0 to 10 where 0 is no effect and 10 is complete control
[14] = Rate 62 g/ha, Postemergence section, flood test species, scale of 0 to 10 where 0 is no effect and 10 is complete control
[15] = Rate 250 g/ha, Postemergence (flood test), scale 0 to 10, 0 is no effect, 10 is complete control
[16] = Rate 250 g/ha, Pre-emergence, flood-test species, scale 0 to 10, 0 is no effect, 10 is complete control
[17] = Rate 500 g/ha, listed under Postemergence (flood test species), scale 0 to 10
[18] = Rate 2000 g/ha, Pre-emergence (as headed), scale 0 to 10
[19] = Rate 500 g/ha, headed Pre-emergence (flood test species), scale 0 to 10 (0 no effect, 10 complete control)
[20] = Rate 1000 g/ha, Pre-emergence (as headed), scale 0 to 10

CC(C)N(C(=O)n1oc(=O)n(N(C)c2ccccc2)c1=O)c1ccc(F)cc1 [Compound 177]
Morningglory plant response rating (morningglory; [1]): 0
Morningglory plant response rating (morningglory; [2]): 1
Morningglory plant response rating (morningglory; [3]): 0
Morningglory plant response rating (0 to 10 scale) (morningglory; [4]): 0
Morningglory plant response rating (morningglory; [5]): 0
Morningglory plant response rating (morningglory; [6]): 0
Morningglory plant response rating (morningglory; [7]): 0
Plant response rating, Morningglory (morningglory; [8]): 2
Morningglory plant response rating (morningglory; [9]): 4
Plant response rating, Morningglory (morningglory; [10]): 0
Morningglory plant response rating (morningglory; [11]): 1
Morningglory plant response rating (morningglory; [12]): 0
Bedstraw plant response rating (bedstraw; [1]): 0
Bedstraw plant response rating (bedstraw; [3]): 0
Bedstraw plant response rating (0 to 10 scale) (bedstraw; [4]): 0
Bedstraw plant response rating (bedstraw; [5]): 9
Bedstraw plant response rating (bedstraw; [6]): 10
Bedstraw plant response rating (bedstraw; [7]): 0
Plant response rating, Bedstraw (bedstraw; [8]): 5
Bedstraw plant response rating (bedstraw; [9]): 6
Plant response rating, Bedstraw (bedstraw; [10]): 10
Bedstraw plant response rating (bedstraw; [12]): 10
Corn plant response rating (corn; [1]): 0
Corn plant response rating (corn; [2]): 0
Corn plant response rating (corn; [3]): 0
Corn plant response rating (0 to 10 scale) (corn; [4]): 0
Corn plant response rating (corn; [5]): 0
Corn plant response rating (corn; [6]): 0
Corn plant response rating (corn; [7]): 0
Plant response rating, Corn (corn; [8]): 0
Corn plant response rating (corn; [9]): 0
Plant response rating, Corn (corn; [10]): 0
Corn plant response rating (corn; [11]): 0
Corn plant response rating (corn; [12]): 0
Cocklebur plant response rating (cocklebur; [1]): 0
Cocklebur plant response rating (cocklebur; [2]): 0
Cocklebur plant response rating (cocklebur; [3]): 0
Cocklebur plant response rating (0 to 10 scale) (cocklebur; [4]): 0
Cocklebur plant response rating (cocklebur; [5]): 0
Cocklebur plant response rating (cocklebur; [6]): 0
Cocklebur plant response rating (cocklebur; [7]): 0
Plant response rating, Cocklebur (cocklebur; [8]): 0
Cocklebur plant response rating (cocklebur; [9]): 3
Cocklebur plant response rating (cocklebur; [11]): 0
Cocklebur plant response rating (cocklebur; [12]): 2
Giant foxtail plant response rating (giant foxtail; [1]): 0
Giant foxtail plant response rating (giant foxtail; [2]): 0
Giant foxtail plant response rating (giant foxtail; [3]): 3
Giant foxtail plant response rating (0 to 10 scale) (giant foxtail; [4]): 3
Giant foxtail plant response rating (giant foxtail; [5]): 10
Giant foxtail plant response rating (giant foxtail; [6]): 10
Giant foxtail plant response rating (giant foxtail; [7]): 0
Plant response rating, Giant foxtail (giant foxtail; [8]): 0
Giant foxtail plant response rating (giant foxtail; [9]): 0
Plant response rating, Giant foxtail (giant foxtail; [10]): 10
Giant foxtail plant response rating (giant foxtail; [11]): 2
Giant foxtail plant response rating (giant foxtail; [12]): 10
Rape plant response rating (rape; [1]): 0
Rape plant response rating (rape; [2]): 0
Rape plant response rating (rape; [3]): 0
Rape plant response rating (0 to 10 scale) (rape; [4]): 0
Rape plant response rating (rape; [5]): 0
Rape plant response rating (rape; [6]): 0
Rape plant response rating (rape; [7]): 0
Plant response rating, Rape (rape; [8]): 0
Rape plant response rating (rape; [9]): 0
Plant response rating, Rape (rape; [10]): 0
Rape plant response rating (rape; [11]): 3
Rape plant response rating (rape; [12]): 0
Sugarbeets plant response rating (sugar beet; [1]): 0
Sugarbeets plant response rating (sugar beet; [2]): 0
Sugarbeets plant response rating (sugar beet; [3]): 0
Sugarbeets plant response rating (0 to 10 scale) (sugar beet; [4]): 0
Sugarbeets plant response rating (sugar beet; [5]): 0
Sugarbeets plant response rating (sugar beet; [6]): 0
Sugarbeets plant response rating (sugar beet; [7]): 0
Plant response rating, Sugarbeets (sugar beet; [8]): 0
Sugarbeets plant response rating (sugar beet; [9]): 0
Plant response rating, Sugarbeets (sugar beet; [10]): 0
Sugarbeets plant response rating (sugar beet; [11]): 0
Sugarbeets plant response rating (sugar beet; [12]): 0
Velvetleaf plant response rating (velvetleaf; [2]): 0
Velvetleaf plant response rating (velvetleaf; [3]): 0
Velvetleaf plant response rating (0 to 10 scale) (velvetleaf; [4]): 0
Velvetleaf plant response rating (velvetleaf; [5]): 0
Velvetleaf plant response rating (velvetleaf; [6]): 0
Plant response rating, Velvetleaf (velvetleaf; [8]): 0
Velvetleaf plant response rating (velvetleaf; [9]): 3
Plant response rating, Velvetleaf (velvetleaf; [10]): 0
Velvetleaf plant response rating (velvetleaf; [11]): 4
Velvetleaf plant response rating (velvetleaf; [12]): 3
S. Flatsedge plant response rating (smallflower flatsedge; [13]): 0
S. Flatsedge plant response rating (smallflower flatsedge; Pre-emergence, Rate 1000 g/ha, scale 0 to 10 (0 no effect, 10 complete control)): 0
S. Flatsedge plant response rating (smallflower flatsedge; [14]): 0
Plant response rating, S. Flatsedge (smallflower flatsedge; [15]): 0
S. Flatsedge plant response rating (smallflower flatsedge; [16]): 0
S. Flatsedge plant response rating (smallflower flatsedge; [17]): 0
S. Flatsedge plant response rating (smallflower flatsedge; Rate 500 g/ha, Pre-emergence, flood test species, scale 0 to 10 (0 no effect, 10 complete control)): 0
S. Flatsedge plant response rating (smallflower flatsedge; [18]): 0
Crabgrass plant response rating (crabgrass; [1]): 0
Crabgrass plant response rating (crabgrass; [2]): 0
Crabgrass plant response rating (crabgrass; [3]): 1
Crabgrass plant response rating (0 to 10 scale) (crabgrass; [4]): 6
Crabgrass plant response rating (crabgrass; [5]): 9
Crabgrass plant response rating (crabgrass; [6]): 9
Crabgrass plant response rating (crabgrass; [7]): 0
Plant response rating, Crabgrass (crabgrass; [8]): 2
Crabgrass plant response rating (crabgrass; [9]): 3
Plant response rating, Crabgrass (crabgrass; [10]): 8
Crabgrass plant response rating (crabgrass; [11]): 0
Crabgrass plant response rating (crabgrass; [12]): 9
Rice plant response rating (rice; [13]): 0
Rice plant response rating (rice; [14]): 0
Plant response rating, Rice (rice; [15]): 0
Rice plant response rating (rice; [16]): 0
Plant response rating, Rice (rice; [19]): 0
Rice plant response rating (rice; [17]): 0
Rice plant response rating (rice; [20]): 0
Rice plant response rating (rice; [18]): 0
Wild oats plant response rating (wild oat; [2]): 2
Wild oats plant response rating (wild oat; [3]): 0
Wild oats plant response rating (0 to 10 scale) (wild oat; [4]): 0
Wild oats plant response rating (wild oat; [5]): 0
Wild oats plant response rating (wild oat; [6]): 2
Plant response rating, Wild oats (wild oat; [8]): 0
Wild oats plant response rating (wild oat; [9]): 0
Plant response rating, Wild oats (wild oat; [10]): 10
Wild oats plant response rating (wild oat; [11]): 2
Wild oats plant response rating (wild oat; [12]): 10
Blackgrass plant response rating (blackgrass; [1]): 0
Blackgrass plant response rating (blackgrass; [2]): 3
Blackgrass plant response rating (blackgrass; [3]): 0
Blackgrass plant response rating (0 to 10 scale) (blackgrass; [4]): 0
Blackgrass plant response rating (blackgrass; [5]): 6
Blackgrass plant response rating (blackgrass; [6]): 6
Blackgrass plant response rating (blackgrass; [7]): 0
Plant response rating, Blackgrass (blackgrass; [8]): 0
Blackgrass plant response rating (blackgrass; [9]): 2
Plant response rating, Blackgrass (blackgrass; [10]): 7
Blackgrass plant response rating (blackgrass; [11]): 6
Blackgrass plant response rating (blackgrass; [12]): 9
B. signalgrass plant response rating (surinam grass; [1]): 0
B. signalgrass plant response rating (surinam grass; [2]): 0
B. signalgrass plant response rating (surinam grass; [3]): 0
B. signalgrass plant response rating (0 to 10 scale) (surinam grass; [4]): 0
B. signalgrass plant response rating (surinam grass; [5]): 0
B. signalgrass plant response rating (surinam grass; [6]): 0
B. signalgrass plant response rating (surinam grass; [7]): 0
Plant response rating, B. signalgrass (surinam grass; [8]): 0
B. signalgrass plant response rating (surinam grass; Rate 500 g/ha, Postemergence, scale 0 to 10, 0 no effect, 10 complete control): 0
Plant response rating, B. signalgrass (surinam grass; [10]): 5
B. signalgrass plant response rating (surinam grass; [11]): 0
B. signalgrass plant response rating (surinam grass; [12]): 9
Barnyardgrass plant response rating (bamyardgrass; [13]): 0
Barnyardgrass plant response rating (bamyardgrass; [14]): 0
Plant response rating, Barnyardgrass (bamyardgrass; [15]): 0
Barnyardgrass plant response rating (bamyardgrass; [16]): 0
Plant response rating, Barnyardgrass (bamyardgrass; [19]): 0
Barnyardgrass plant response rating (bamyardgrass; [17]): 0
Barnyardgrass plant response rating (bamyardgrass; [20]): 0
Barnyardgrass plant response rating (bamyardgrass; Rate 2000 g/ha, Pre-emergence (as headed), scale 0 to 10, 0 no effect, 10 complete control): 0
Redroot pigweed plant response rating (pigweed; [1]): 0
Redroot pigweed plant response rating (pigweed; [2]): 2
Redroot pigweed plant response rating (pigweed; [3]): 0
Redroot pigweed plant response rating (0 to 10 scale) (pigweed; [4]): 0
Redroot pigweed plant response rating (pigweed; [5]): 0
Redroot pigweed plant response rating (pigweed; [6]): 0
Redroot pigweed plant response rating (pigweed; [7]): 0
Plant response rating, Redroot pigweed (pigweed; [8]): 0
Redroot pigweed plant response rating (pigweed; [9]): 3
Plant response rating, Redroot pigweed (pigweed; [10]): 0
Redroot pigweed plant response rating (pigweed; [11]): 3
Redroot pigweed plant response rating (pigweed; [12]): 0
